pEC50: −log10 of the molar value. Several values for one entry are separate records, joined by “and”; a condition that tells them apart may be missing. Equal entries are not always repeated.

The nature of data set [1]: rate constants and Arrhenius analysis of (beta-Asp10) abaloparatide formation. The format is physicochemical. The procedure:
Rate constants at each temperature are tabulated in the top row of Table 18.
An Arrhenius plot was constructed (FIG. 8) by plotting the natural logarithm of the rate constants (k) for three storage temperatures, against the reciprocals of those temperatures in Kelvin. […] The activation energy, Ea, derived with high accuracy from the slope of a linear regression best fit of the Arrhenius plot is Ea=91,670 J/mol. […] For example, the observed rate constant at 5° C., Kobs=0.0655%/month agrees well with the predicted value, Kcalc=0.0644%/month, with only a 0.0011% absolute difference and a 1.7% relative difference.
The amount of b-Asp10 in the API must be determined with rigor and set accordingly to achieve the desired stability profile after pre-specified storage conditions. Previously, this could not be done as the methods used were insufficient for its identification and quantification. Therefore, not only has a new degradant been discovered but the methods described herein have allowed the formation rate equation to be determined and thus allow for setting its specification in the API when coupled with a desired storage stability profile. […] Similarly, the API, once formulated into cartridges is tested for purity including evaluation for (b-Asp10) right after the cartridge is formulated. This is also an important evaluation point for (b-Asp10) because the formulation itself requires time to complete mixing and filling prior to refrigeration.

In another data set the target is T1, PTH receptors (Homo sapiens, UniProt Q03431).
T1 sequence (Q03431 27-593): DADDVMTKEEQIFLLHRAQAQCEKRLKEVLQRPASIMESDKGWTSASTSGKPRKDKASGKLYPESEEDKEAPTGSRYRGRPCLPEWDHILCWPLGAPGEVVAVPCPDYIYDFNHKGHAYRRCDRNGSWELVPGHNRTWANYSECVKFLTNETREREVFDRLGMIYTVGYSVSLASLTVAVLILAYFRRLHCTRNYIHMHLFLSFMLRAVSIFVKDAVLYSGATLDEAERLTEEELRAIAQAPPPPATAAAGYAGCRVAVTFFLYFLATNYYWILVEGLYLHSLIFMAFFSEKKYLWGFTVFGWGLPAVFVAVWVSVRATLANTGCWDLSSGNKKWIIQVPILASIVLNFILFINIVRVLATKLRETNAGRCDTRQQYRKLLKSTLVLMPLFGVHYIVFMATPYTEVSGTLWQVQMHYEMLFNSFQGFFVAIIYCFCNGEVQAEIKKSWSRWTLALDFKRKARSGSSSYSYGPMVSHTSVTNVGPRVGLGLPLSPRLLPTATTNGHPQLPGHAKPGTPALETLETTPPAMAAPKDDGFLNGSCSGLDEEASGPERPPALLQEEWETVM
Briefly: qualified cell base potency assay for functional PTH activity (cAMP production). The format is cell-based. For orientation: cAMP levels reflect the balance of adenylyl cyclase and phosphodiesterase activity.

The nature of data set [2]: (beta-Asp10) abaloparatide levels in formulated registration batches at different storage conditions. The format is physicochemical.

In the case of `CC[C@H](C)[C@H](NC(=O)[C@H](CO)NC(=O)[C@H](CCCCN)NC(=O)CNC(=O)[C@H](CCCCN)NC(=O)[C@H](CC(=O)O)NC(=O)[C@H](Cc1c[nH]cn1)NC(=O)[C@H](CC(C)C)NC(=O)[C@H](CC(C)C)NC(=O)[C@H](CCC(N)=O)NC(=O)[C@H](Cc1c[nH]cn1)NC(=O)[C@H](CCC(=O)O)NC(=O)[C@H](CO)NC(=O)[C@@H](NC(=O)[C@H](C)N)C(C)C)C(=O)N[C@@H](CCC(N)=O)C(=O)N[C@@H](CC(=O)O)C(=O)N[C@@H](CC(C)C)C(=O)N[C@@H](CCCNC(=N)N)C(=O)N[C@@H](CCCNC(=N)N)C(=O)N[C@@H](CCCNC(=N)N)C(=O)N[C@@H](CCC(=O)O)C(=O)N[C@@H](CC(C)C)C(=O)N[C@@H](CC(C)C)C(=O)N[C@@H](CCC(=O)O)C(=O)N[C@@H](CCCCN)C(=O)N[C@@H](CC(C)C)C(=O)N[C@@H](CC(C)C)C(=O)NC(C)(C)C(=O)N[C@@H](CCCCN)C(=O)N[C@@H](CC(C)C)C(=O)N[C@@H](Cc1c[nH]cn1)C(=O)N[C@H](C(=O)N[C@@H](C)C(N)=O)[C@@H](C)O` [abaloparatide, [Glu^22,25, Leu^23,28,31, Aib^29, Lys^26,30]hPTHrP(1-34)NH2)], the “kinetic order of isomerization of abaloparatide to (beta-Asp10) isomer” value in data set [1] (formulated drug product) is given as “zero order kinetics”.

Turning to `CC[C@H](C)[C@H](NC(=O)[C@H](CO)NC(=O)[C@H](CCCCN)NC(=O)CNC(=O)[C@H](CCCCN)NC(=O)C[C@H](NC(=O)[C@H](Cc1c[nH]cn1)NC(=O)[C@H](CC(C)C)NC(=O)[C@H](CC(C)C)NC(=O)[C@H](CCC(N)=O)NC(=O)[C@H](Cc1c[nH]cn1)NC(=O)[C@H](CCC(=O)O)NC(=O)[C@H](CO)NC(=O)[C@@H](NC(=O)[C@H](C)N)C(C)C)C(=O)O)C(=O)N[C@@H](CCC(N)=O)C(=O)N[C@@H](CC(=O)O)C(=O)N[C@@H](CC(C)C)C(=O)N[C@@H](CCCNC(=N)N)C(=O)N[C@@H](CCCNC(=N)N)C(=O)N[C@@H](CCCNC(=N)N)C(=O)N[C@@H](CCC(=O)O)C(=O)N[C@@H](CC(C)C)C(=O)N[C@@H](CC(C)C)C(=O)N[C@@H](CCC(=O)O)C(=O)N[C@@H](CCCCN)C(=O)N[C@@H](CC(C)C)C(=O)N[C@@H](CC(C)C)C(=O)NC(C)(C)C(=O)N[C@@H](CCCCN)C(=O)N[C@@H](CC(C)C)C(=O)N[C@@H](Cc1c[nH]cn1)C(=O)N[C@H](C(=O)N[C@@H](C)C(N)=O)[C@@H](C)O` [(beta-Asp10) abaloparatide, [b-Asp^10, Glu^22,25, Leu^23,28,31, Aib^29, Lys^26,30]hPTHrP(1-34)NH2)], on PTH receptors, the “agonist on PTH receptors” value is listed as “active per se as an agonist”. Further, at PTH receptors (production of cAMP as a measure of bioactivity), the pEC50 was 9.08. Further, the “Difference (%) between kobs and Kcalc (relative difference)” value in data set [1] (5° C.) was 2.3%. In addition, the “Kcalc (%/month), rate constant calculated from activation energy” value in data set [1] (5° C.) was 0.0644 %/month and 0.0674 %/month; in data set [1] (25° C.), 0.938 %/month; in data set [1] (40° C.), 5.19 %/month. Also, in data set [1] (5° C.), the “absolute difference between Kobs and Kcalc” value is reported as 0.0011%. Also, the “kobs (%/month), observed rate constant for formation of (beta-Asp10) abaloparatide” value is 0.0655 %/month and 0.0690 %/month in data set [1] (5° C.); 0.993 %/month in data set [1] (25° C.); 5.38 %/month in data set [1] (40° C.). For the same compound, the “Difference (%) between kobs and Kcalc” value in data set [1] (25° C.) was −5.6%; in data set [1] (40° C.) it was 3.5%. Besides, the “activation energy, Ea” value in data set [1] (slope of linear regression of Arrhenius plot, 5° C. to 40° C.) was 91,670 J/mol. Besides, the “(beta-Asp10) abaloparatide level (mean) in formulated samples” value (“(beta-Asp10) abaloparatide level (mean)” below) in data set [2] (5° C. long term storage condition, 0 M) stood at 0.3%; in data set [2] (5° C. long term storage condition, 3 M), 0.5%; in data set [2] (5° C. long term storage condition, 6 M), 0.76%; in data set [2] (5° C. long term storage condition, 9 M) it was 0.96%; in data set [2] (5° C. long term storage condition, 12 M) it was 1.03%; in data set [2] (5° C. long term storage condition, 18 M) it was 1.66%. Besides, the “(beta-Asp10) abaloparatide level (mean)” value stood at 1.93% in data set [2] (5° C. long term storage condition, 24 M); 0.3% in data set [2] (25° C. accelerated condition, 0 M); 1.26% in data set [2] (25° C. accelerated condition, 1 M); 3.26% in data set [2] (25° C. accelerated condition, 3 M); 6.3% in data set [2] (25° C. accelerated condition, 6 M); 9.43% in data set [2] (25° C. accelerated condition, 9 M). The “(beta-Asp10) abaloparatide level (mean)” value in data set [2] (25° C. accelerated condition, 12 M) is listed as 11.96%; in data set [2] (25° C. accelerated condition, 18 M), 16.73%; in data set [2] (25° C. accelerated condition, 24 M), 20.73%; in data set [2] (40° C. stress condition, 0 M) it was 0.3%; in data set [2] (40° C. stress condition, 1 M), 7.10%; in data set [2] (40° C. stress condition, 3 M), 18.76%. For the same compound, in data set [2] (40° C. stress condition, 6 M), the “(beta-Asp10) abaloparatide level (mean)” value worked out at 32.9%.

In general, pEC50 refers to −log10 of the EC50, conventionally taken in molar units. High values mean a low EC50, low ones a high EC50.

The record behind these values is US11977067B2 (Radius Health, Inc., priority 2017, dated 2024).
